Measured values as given in ChEMBL document CHEMBL3734705, “Synthesis and in vitro cytotoxicity of novel C-12 substituted-14-deoxy-andrographolide derivatives as potent anti-cancer agents” (2015).
The source made the active and inactive calls. No cut-off for these calls is given here.

Columns and labels:
[1] = Cytotoxicity against human RPMI8226 cells assessed as growth inhibition at 10 uM after 48 hrs by SRB assay; format: functional; details: RPMI-8226, 48 h, read-out: GI
HT-29 = assay: Cytotoxicity against human HT-29 cells assessed as growth inhibition at 10 uM after 48 hrs by SRB assay; format: functional; details: HT-29, 48 h, read-out: GI
[2] = Cytotoxicity against human UACC62 cells after 48 hrs by SRB assay; format: functional; details: UACC-62, 48 h
[3] = Cytotoxicity against human HOP92 cells after 48 hrs by SRB assay; format: functional; details: HOP-92, 48 h
M14 [4] = assay: Cytotoxicity against human M14 cells after 48 hrs by SRB assay; format: functional; details: M14, 48 h
MCF7 [5] = assay: Cytotoxicity against human MCF7 cells after 48 hrs by SRB assay; format: functional; details: MCF7, 48 h
M14 [6] = assay: Cytotoxicity against human M14 cells assessed as growth level at 10 uM after 48 hrs by SRB assay; format: functional
A498 [7] = assay: Cytotoxicity against human A498 cells assessed as growth inhibition at 10 uM after 48 hrs by SRB assay; format: functional; details: A498, 48 h, read-out: GI
[8] = Cytotoxicity against human NCI-ADR-RES cells after 48 hrs by SRB assay; format: functional
NCI-H322M [9] = assay: Cytotoxicity against human NCI-H322M cells assessed as growth inhibition at 10 uM after 48 hrs by SRB assay; format: functional
[10] = Cytotoxicity against human SF268 cells after 48 hrs by SRB assay; format: functional; details: SF-268, 48 h
[11] = Cytotoxicity against human SF295 cells assessed as growth inhibition at 10 uM after 48 hrs by SRB assay; format: functional; details: SF-295, 48 h, read-out: GI
NCI-H322M [12] = assay: Cytotoxicity against human NCI-H322M cells assessed as growth level at 10 uM after 48 hrs by SRB assay; format: functional
SK-MEL-28 = assay: Cytotoxicity against human SK-MEL-28 cells assessed as growth level at 10 uM after 48 hrs by SRB assay; format: functional
[13] = Cytotoxicity against human UO31 cells assessed as growth inhibition at 10 uM after 48 hrs by SRB assay; format: functional; details: UO-31, 48 h, read-out: GI
[14] = Cytotoxicity against human OVCAR4 cells assessed as growth inhibition at 10 uM after 48 hrs by SRB assay; format: functional; details: OVCAR-4, 48 h, read-out: GI
SK-MEL-5 = assay: Cytotoxicity against human SK-MEL-5 cells after 48 hrs by SRB assay; format: functional; details: SK-MEL-5, 48 h
[15] = Cytotoxicity against human SNB19 cells assessed as growth level at 10 uM after 48 hrs by SRB assay; format: functional, SNB-19
NCI-H226 [16] = assay: Cytotoxicity against human NCI-H226 cells assessed as growth level at 10 uM after 48 hrs by SRB assay; format: functional
[17] = Cytotoxicity against human UACC62 cells assessed as growth inhibition at 10 uM after 48 hrs by SRB assay; format: functional; details: UACC-62, 48 h, read-out: GI
SN12C = assay: Cytotoxicity against human SN12C cells assessed as growth inhibition at 10 uM after 48 hrs by SRB assay; format: functional; details: read-out: GI
[18] = Cytotoxicity against human PC3 cells assessed as growth inhibition at 10 uM after 48 hrs by SRB assay; format: functional; details: PC-3, 48 h, read-out: GI
[19] = Cytotoxicity against human UACC62 cells assessed as growth level at 10 uM after 48 hrs by SRB assay; format: functional, UACC-62
[20] = Cytotoxicity against human BT549 cells assessed as growth level at 10 uM after 48 hrs by SRB assay; format: functional, BT-549
ACHN [21] = assay: Cytotoxicity against human ACHN cells assessed as growth inhibition at 10 uM after 48 hrs by SRB assay; format: functional; details: read-out: GI
A498 [22] = assay: Cytotoxicity against human A498 cells after 48 hrs by SRB assay; format: functional; details: A498, 48 h
[23] = Cytotoxicity against human COLO205 cells assessed as growth level at 10 uM after 48 hrs by SRB assay; format: functional, COLO 205
[24] = Cytotoxicity against human SNB19 cells after 48 hrs by SRB assay; format: functional; details: SNB-19, 48 h
MCF7 [25] = assay: Cytotoxicity against human MCF7 cells assessed as growth level at 10 uM after 48 hrs by SRB assay; format: functional
A549 = assay: Cytotoxicity against human A549 cells assessed as growth inhibition at 10 uM after 48 hrs by SRB assay; format: functional; details: A549, 48 h, read-out: GI
[26] = Cytotoxicity against human UO31 cells assessed as growth level at 10 uM after 48 hrs by SRB assay; format: functional, UO-31
CCRF-CEM = assay: Cytotoxicity against human CCRF-CEM cells assessed as growth inhibition at 10 uM after 48 hrs by SRB assay; format: functional; details: read-out: GI
NCI-H226 [27] = assay: Cytotoxicity against human NCI-H226 cells after 48 hrs by SRB assay; format: functional; details: NCI-H226, 48 h
[28] = Cytotoxicity against human SF268 cells assessed as growth inhibition at 10 uM after 48 hrs by SRB assay; format: functional; details: SF-268, 48 h, read-out: GI
NCI-H460 = assay: Cytotoxicity against human NCI-H460 cells after 48 hrs by SRB assay; format: functional; details: NCI-H460, 48 h
[29] = Cytotoxicity against human TK10 cells assessed as growth inhibition at 10 uM after 48 hrs by SRB assay; format: functional; details: TK-10, 48 h, read-out: GI
ACHN [30] = assay: Cytotoxicity against human ACHN cells after 48 hrs by SRB assay; format: functional
[31] = Cytotoxicity against human SF295 cells after 48 hrs by SRB assay; format: functional; details: SF-295, 48 h
M14 [32] = assay: Cytotoxicity against human M14 cells assessed as growth inhibition at 10 uM after 48 hrs by SRB assay; format: functional; details: M14, 48 h, read-out: GI
[33] = Cytotoxicity against human NCI-ADR-RES cells assessed as growth inhibition at 10 uM after 48 hrs by SRB assay; format: functional; details: read-out: GI
[34] = Cytotoxicity against human HOP92 cells assessed as growth level at 10 uM after 48 hrs by SRB assay; format: functional, HOP-92
[35] = read-out: LC50 (the source's name)

C=C1CC[C@@H]2[C@](C)(COC(C)=O)[C@H](OC(C)=O)CC[C@@]2(C)[C@@H]1C/C=C1/C(=O)OC[C@H]1OC(C)=O
inhibition of growth at 10 µM [1]: 85.9% | inhibition of growth at 10 µM (HT-29): 39.4% | GI50 [2]: 3.37 µM | LC50 [2]: 40.7 µM | TGI [2]: 13.5 µM | GI50 [3]: 13.2 µM | LC50 [3]: 52.7 µM | TGI [3]: 26.4 µM | GI50 (M14 [4]): 2220 nM | LC50 (M14 [4]): 26.5 µM | TGI (M14 [4]): 6.48 µM | GI50 (MCF7 [5]): 1830 nM | LC50 (50% lethal concentration) (MCF7 [5]): > 100 µM | TGI (MCF7 [5]): 6.79 µM | Activity (M14 [6]): 35.37% | inhibition of growth at 10 µM (A498 [7]): 9.43% | GI50 [8]: 4.22 µM | LC50 [8]: > 100 µM | TGI [8]: 19.8 µM | growth inhibition (GI) (NCI-H322M [9]): inactive | GI50 [10]: 8.56 µM | LC50 [10]: 55.5 µM | TGI [10]: 22.7 µM | inhibition of growth at 10 µM [11]: 4.98% | Activity (NCI-H322M [12]): 101.35% | Activity (SK-MEL-28): 37.78% | inhibition of growth at 10 µM [13]: 37.2% | inhibition of growth at 10 µM [14]: 33.5% | GI50 (SK-MEL-5): 9.5 µM | LC50 (concentration killing 50% of cells) (SK-MEL-5): 51 µM | TGI (SK-MEL-5): 22.4 µM | Activity [15]: 82.96% | Activity (NCI-H226 [16]): 23.61% | inhibition of growth at 10 µM [17]: 70.3% | inhibition of growth at 10 µM (SN12C): 66.6% | inhibition of growth at 10 µM [18]: 11.5% | Activity [19]: 29.71% | Activity [20]: 27.38% | inhibition of growth at 10 µM (ACHN [21]): 80.5% | GI50 (A498 [22]): 14.4 µM | TGI (A498 [22]): 27.5 µM | CC50 (A498 [22]; [35]): 52.6 µM | Activity [23]: 22.03% | GI50 [24]: 10.8 µM | LC50 (concentration killing 50% of cells) [24]: 55.6 µM | TGI [24]: 24.5 µM | Activity (MCF7 [25]): 22.9% | inhibition of growth at 10 µM (A549): 14.2% | Activity [26]: 62.83% | inhibition of growth at 10 µM (CCRF-CEM): 11.4% | GI50 (NCI-H226 [27]): 2140 nM | LC50 (NCI-H226 [27]): 19.9 µM | TGI (NCI-H226 [27]): 5.42 µM | inhibition of growth at 10 µM [28]: 12.9% | GI50 (NCI-H460): 18.6 µM | TGI (NCI-H460): 37.7 µM | CC50 (NCI-H460; [35]): 76.2 µM | inhibition of growth at 10 µM [29]: 83.1% | GI50 (ACHN [30]): 1710 nM | LC50 (ACHN [30]): 6.06 µM | TGI (ACHN [30]): 3.22 µM | GI50 [31]: 13.3 µM | LC50 [31]: 54.2 µM | TGI [31]: 26.8 µM | inhibition of growth at 10 µM (M14 [32]): 64.6% | inhibition of growth at 10 µM [33]: 75% | Activity [34]: 71.9%

C=C1CC[C@@H]2[C@](C)(COC(C)=O)[C@H](OC(C)=O)CC[C@@]2(C)[C@@H]1CC(NCc1cccc(Cl)c1)C1=CCOC1=O (mixture of isomers)
inhibition of growth at 10 µM [1]: 72.8% | inhibition of growth at 10 µM (HT-29): 74.5% | Activity (M14 [6]): 55.02% | inhibition of growth at 10 µM (A498 [7]): 35.2% | inhibition of growth at 10 µM (NCI-H322M [9]; read-out: GI): 24.6% | inhibition of growth at 10 µM [11]: 14.1% | Activity (NCI-H322M [12]): 75.37% | Activity (SK-MEL-28): 76.6% | inhibition of growth at 10 µM [13]: 53.1% | inhibition of growth at 10 µM [14]: 49.6% | Activity [15]: 55.56% | Activity (NCI-H226 [16]): 46.32% | inhibition of growth at 10 µM [17]: 58.8% | inhibition of growth at 10 µM (SN12C): 37.9% | inhibition of growth at 10 µM [18]: 69.9% | Activity [19]: 41.2% | Activity [20]: 49.66% | inhibition of growth at 10 µM (ACHN [21]): 58.4% | Activity [23]: 36.77% | Activity (MCF7 [25]): 42.95% | inhibition of growth at 10 µM (A549): 45.8% | Activity [26]: 46.94% | inhibition of growth at 10 µM (CCRF-CEM): 57.7% | inhibition of growth at 10 µM [28]: 46.7% | inhibition of growth at 10 µM [29]: 36.7% | inhibition of growth at 10 µM (M14 [32]): 45% | inhibition of growth at 10 µM [33]: 39.7% | Activity [34]: 66.34%
